From ChEMBL document CHEMBL3763146 (J Med Chem, 2016)

Tests used:
[1] = Plasma clearance in cynomolgus monkey at 0.5 mg/kg, iv or 2 mg/kg, po; format: ADME, organism-based, Macaca fascicularis
Cynomolgus monkey [2] = experiment: Dose normalized total AUC in cynomolgus monkey at 2 mg/kg, po; format: ADME, organism-based, Macaca fascicularis; details: in vivo
Cynomolgus monkey [3] = experiment: Dose normalized fAUC in cynomolgus monkey at 2 mg/kg, po; format: ADME, organism-based, Macaca fascicularis; details: in vivo
[4] = Oral bioavailability in cynomolgus monkey at 2 mg/kg; format: ADME, organism-based, Macaca fascicularis; details: in vivo
Cytochrome P450 2C8 = Cytochrome P450 2C8 (Homo sapiens, UniProt P10632); experiment: Inhibition of CYP2C8 in human liver microsomes; format: ADME
Sequence of Cytochrome P450 2C8 (P10632 whole entry): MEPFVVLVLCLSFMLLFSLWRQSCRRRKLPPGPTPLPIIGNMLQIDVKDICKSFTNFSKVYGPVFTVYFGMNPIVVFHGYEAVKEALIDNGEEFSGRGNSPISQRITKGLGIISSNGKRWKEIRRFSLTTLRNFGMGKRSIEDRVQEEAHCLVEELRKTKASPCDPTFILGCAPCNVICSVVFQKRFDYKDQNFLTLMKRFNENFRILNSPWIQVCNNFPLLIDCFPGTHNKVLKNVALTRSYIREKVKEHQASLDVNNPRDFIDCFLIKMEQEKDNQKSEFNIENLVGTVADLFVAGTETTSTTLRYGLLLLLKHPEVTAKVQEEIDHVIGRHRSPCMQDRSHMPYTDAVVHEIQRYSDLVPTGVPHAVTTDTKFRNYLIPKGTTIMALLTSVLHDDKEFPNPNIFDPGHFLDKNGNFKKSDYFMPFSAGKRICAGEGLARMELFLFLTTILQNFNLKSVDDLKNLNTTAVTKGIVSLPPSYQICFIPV

Cytochrome P450 2C19 = Cytochrome P450 2C19 (Homo sapiens, UniProt P33261); experiment: Inhibition of CYP2C19 in human liver microsomes; format: ADME
Sequence of Cytochrome P450 2C19 (P33261 whole entry): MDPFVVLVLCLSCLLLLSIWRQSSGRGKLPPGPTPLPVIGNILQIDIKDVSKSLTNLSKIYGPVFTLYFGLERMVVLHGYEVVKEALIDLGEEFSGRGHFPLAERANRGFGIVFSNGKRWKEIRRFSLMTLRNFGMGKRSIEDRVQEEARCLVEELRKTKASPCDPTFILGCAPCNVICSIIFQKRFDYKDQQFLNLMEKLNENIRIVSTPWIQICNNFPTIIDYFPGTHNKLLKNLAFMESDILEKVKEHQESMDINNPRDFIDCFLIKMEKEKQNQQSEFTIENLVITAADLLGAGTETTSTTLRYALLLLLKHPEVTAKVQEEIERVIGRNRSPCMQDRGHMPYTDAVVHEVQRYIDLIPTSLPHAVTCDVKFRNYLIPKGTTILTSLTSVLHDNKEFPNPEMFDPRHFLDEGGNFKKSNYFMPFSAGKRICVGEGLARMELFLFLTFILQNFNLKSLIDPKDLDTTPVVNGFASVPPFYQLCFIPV

[5] = target: Beta-3 adrenergic receptor (Rattus norvegicus) (UniProt P26255); experiment: Agonist activity at rat beta3 adrenergic receptor expressed in CHO cells assessed as accumulation of cAMP after 30 mins by TR-FRET assay in presence of 40% serum relative to (R)-(-)-isoproterenol; format: functional, cell-based
Sequence of Beta-3 adrenergic receptor (Rattus norvegicus) (P26255 whole entry): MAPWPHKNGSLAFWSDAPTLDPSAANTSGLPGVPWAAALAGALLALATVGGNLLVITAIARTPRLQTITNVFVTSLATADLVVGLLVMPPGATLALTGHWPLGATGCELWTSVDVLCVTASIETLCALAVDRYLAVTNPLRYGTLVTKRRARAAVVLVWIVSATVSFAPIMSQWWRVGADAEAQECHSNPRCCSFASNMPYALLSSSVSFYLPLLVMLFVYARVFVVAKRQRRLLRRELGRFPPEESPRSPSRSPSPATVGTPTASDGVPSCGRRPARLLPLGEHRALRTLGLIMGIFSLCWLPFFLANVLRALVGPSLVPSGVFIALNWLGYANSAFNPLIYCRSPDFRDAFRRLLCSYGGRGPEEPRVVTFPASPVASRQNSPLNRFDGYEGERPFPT

[6] = Induction of phospholidosis in human HepG2 cells incubated overnight by […] in presence of fluorescent labeled phospholipid probe NBD-PE; format: cell-based; details: read-out: A50
[7] = Distribution coefficient, logD of the compound at pH 7.4; format: physicochemical; details: octanol/water
[8] = target: Voltage-dependent L-type calcium channel subunit alpha-1C (Homo sapiens, UniProt Q13936); experiment: Displacement of [3H]-diltiazem from human Cav1.2 channel
Cytochrome P450 2D6 = Cytochrome P450 2D6 (Homo sapiens, UniProt P10635); experiment: Inhibition of CYP2D6 in human liver microsomes assessed as dextraomethorphan O-demethylation; format: ADME
Sequence of Cytochrome P450 2D6 (P10635 whole entry): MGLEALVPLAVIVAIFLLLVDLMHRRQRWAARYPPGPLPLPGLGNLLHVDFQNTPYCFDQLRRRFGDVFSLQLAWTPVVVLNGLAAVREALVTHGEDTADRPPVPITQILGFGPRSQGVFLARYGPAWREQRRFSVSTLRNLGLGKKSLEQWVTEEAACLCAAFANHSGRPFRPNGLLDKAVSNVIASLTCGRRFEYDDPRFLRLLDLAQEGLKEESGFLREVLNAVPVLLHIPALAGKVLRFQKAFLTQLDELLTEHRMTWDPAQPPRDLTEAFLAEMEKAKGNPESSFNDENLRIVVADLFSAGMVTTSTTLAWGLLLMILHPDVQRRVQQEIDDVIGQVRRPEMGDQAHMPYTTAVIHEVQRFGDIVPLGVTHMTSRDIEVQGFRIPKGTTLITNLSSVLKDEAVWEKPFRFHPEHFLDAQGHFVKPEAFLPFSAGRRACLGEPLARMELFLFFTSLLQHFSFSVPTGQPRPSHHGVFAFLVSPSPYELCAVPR

[9] = target: Beta-3 adrenergic receptor (Homo sapiens, UniProt P13945); experiment: Agonist activity at human beta3 adrenergic receptor expressed in CHO cells assessed as accumulation of cAMP after 30 mins by TR-FRET assay relative to (R)-(-)-isoproterenol; format: functional, cell-based
Sequence of Beta-3 adrenergic receptor (P13945 whole entry, looked up): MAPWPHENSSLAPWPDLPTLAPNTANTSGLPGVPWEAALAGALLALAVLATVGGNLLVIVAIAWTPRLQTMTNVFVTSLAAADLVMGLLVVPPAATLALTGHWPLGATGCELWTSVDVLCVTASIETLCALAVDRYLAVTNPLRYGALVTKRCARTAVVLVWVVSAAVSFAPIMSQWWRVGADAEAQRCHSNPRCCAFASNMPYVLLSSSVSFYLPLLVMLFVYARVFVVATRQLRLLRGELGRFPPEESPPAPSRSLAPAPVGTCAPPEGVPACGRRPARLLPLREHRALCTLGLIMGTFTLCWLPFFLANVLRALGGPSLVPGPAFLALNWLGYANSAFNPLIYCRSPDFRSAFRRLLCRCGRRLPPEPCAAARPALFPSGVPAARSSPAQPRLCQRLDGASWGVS

[10] = Plasma clearance in rhesus monkey at 0.5 mg/kg, iv or 2 mg/kg, po; format: ADME, organism-based, Macaca mulatta
Rattus norvegicus [11] = experiment: Unbound clearance in rat at 1 mg/kg, iv or 2 mg/kg, po; format: ADME, organism-based; details: in vivo
Rhesus monkey = experiment: Unbound clearance in rhesus monkey at 0.5 mg/kg, iv or 2 mg/kg, po; format: ADME, organism-based, Macaca mulatta; details: in vivo
[12] = Half life in dog at 0.5 mg/kg, iv or 2 mg/kg, po; format: ADME, organism-based, Canis lupus familiaris; details: in vivo
[13] = Half life in rhesus monkey at 0.5 mg/kg, iv or 2 mg/kg, po; format: ADME, organism-based, Macaca mulatta; details: in vivo
Rattus norvegicus [14] = experiment: Dose normalized fAUC in rat at 2 mg/kg, po; format: ADME, organism-based; details: in vivo
[15] = Oral bioavailability in dog at 2 mg/kg; format: ADME, organism-based, Canis lupus familiaris; details: in vivo
[16] = Oral bioavailability in rhesus monkey at 2 mg/kg; format: ADME, organism-based, Macaca mulatta; details: in vivo
[17] = Fraction unbound in rat at 1 mg/kg, iv or 2 mg/kg, po; format: ADME, organism-based; details: in vivo
[18] = Fraction unbound in dog at 0.5 mg/kg, iv or 2 mg/kg, po; format: ADME, organism-based, Canis lupus familiaris; details: in vivo
[19] = Fraction unbound in rhesus monkey at 0.5 mg/kg, iv or 2 mg/kg, po; format: ADME, organism-based, Macaca mulatta; details: in vivo
[20] = Intrinsic clearance in dog liver microsomes; format: ADME, Canis lupus familiaris; details: read-out: CLH
[21] = Intrinsic clearance in human liver microsomes; format: ADME; details: read-out: CLH
[22] = Stability in rat plasma assessed as parent compound remaining at 24 hrs by LC-MS analysis; format: ADME, cell-free; details: read-out: Stability
[23] = Stability in dog plasma assessed as parent compound remaining at 24 hrs by LC-MS analysis; format: ADME, cell-free, Canis lupus familiaris; details: read-out: Stability
[24] = Stability in rhesus monkey plasma assessed as parent compound remaining at 24 hrs by LC-MS analysis; format: ADME, cell-free, Macaca mulatta; details: read-out: Stability
[25] = target: Beta-3 adrenergic receptor (Rattus norvegicus) (UniProt P26255); experiment: Agonist activity at rat beta3 adrenergic receptor expressed in CHO cells assessed as accumulation of cAMP after 30 mins by TR-FRET assay relative to (R)-(-)-isoproterenol; format: functional, cell-based
[26] = target: Beta-3 adrenergic receptor (Macaca mulatta) (UniProt Q28524); experiment: Agonist activity at rhesus monkey beta3 adrenergic receptor expressed in CHO cells assessed as accumulation of cAMP after 30 mins by TR-FRET assay relative to (R)-(-)-isoproterenol; format: functional, cell-based
Sequence of Beta-3 adrenergic receptor (Macaca mulatta) (Q28524 whole entry, the tested form may be a part): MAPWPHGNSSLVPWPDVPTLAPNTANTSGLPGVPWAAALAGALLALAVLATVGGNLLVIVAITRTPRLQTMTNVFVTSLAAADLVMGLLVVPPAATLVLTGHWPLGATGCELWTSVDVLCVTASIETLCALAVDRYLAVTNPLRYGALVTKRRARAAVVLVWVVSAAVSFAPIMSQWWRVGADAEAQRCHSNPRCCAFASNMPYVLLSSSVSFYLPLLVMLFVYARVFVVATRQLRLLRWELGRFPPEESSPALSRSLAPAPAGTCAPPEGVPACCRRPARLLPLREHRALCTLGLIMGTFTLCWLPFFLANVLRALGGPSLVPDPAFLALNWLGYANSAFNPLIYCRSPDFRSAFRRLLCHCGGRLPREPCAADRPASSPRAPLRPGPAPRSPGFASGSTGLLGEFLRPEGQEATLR

Rattus norvegicus [27] = experiment: Increase in detrusor muscle relaxation in iv infused Sprague-Dawley rat acetic acid-induced bladder hyperreflexia model assessed as decrease in micturition pressure measured over 30 to 45 mins; format: functional, organism-based
Rattus norvegicus [28] = experiment: Increase in detrusor muscle relaxation in iv infused Sprague-Dawley rat acetic acid-induced bladder hyperreflexia model assessed as increase in functional bladder capacity measured over 30 to 45 mins; format: organism-based
[29] = Drug recovery in bile duct cannulated rat urine at 10 mg/kg, po measured over 48 hrs; format: ADME, organism-based; details: read-out: Drug recovery
[30] = Drug recovery in bile duct cannulated rat feces at 10 mg/kg, po measured over 48 hrs; format: ADME, organism-based; details: faeces, read-out: Drug recovery
Hepatocyte = experiment: Increase in CYP3A4 mRNA expression in human hepatocytes up to 10 uM; format: ADME, cell-based
[31] = target: Nuclear receptor subfamily 1 group I member 2 (Homo sapiens, UniProt O75469); experiment: Activation of human PX receptor
Sequence of Nuclear receptor subfamily 1 group I member 2 (O75469 whole entry): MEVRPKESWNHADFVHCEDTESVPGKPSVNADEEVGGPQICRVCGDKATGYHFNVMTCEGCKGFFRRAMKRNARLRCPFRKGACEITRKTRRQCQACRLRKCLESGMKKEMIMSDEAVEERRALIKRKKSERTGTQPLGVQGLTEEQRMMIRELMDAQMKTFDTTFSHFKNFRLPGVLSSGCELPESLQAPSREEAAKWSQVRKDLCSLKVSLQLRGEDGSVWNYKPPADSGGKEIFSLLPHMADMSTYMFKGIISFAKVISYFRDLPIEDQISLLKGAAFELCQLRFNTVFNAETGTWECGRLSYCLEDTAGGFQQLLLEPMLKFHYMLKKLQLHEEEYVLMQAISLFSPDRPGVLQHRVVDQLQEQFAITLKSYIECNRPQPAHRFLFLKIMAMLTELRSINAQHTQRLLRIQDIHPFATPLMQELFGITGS

[32] = Solubility of the compound in simulated gastric fluid; format: ADME
[33] = Solubility of the compound in fed-simulated intestinal fluid; format: ADME; details: fed-state simulated intestinal fluid
Rattus norvegicus [34] = organism: Rattus norvegicus; experiment: Toxicity in Sprague-Dawley rat assessed as postmortem parameters measured up to 6 months; format: organism-based; details: in vivo
[35] = target: Beta-1 adrenergic receptor (Homo sapiens, UniProt P08588)
Sequence of Beta-1 adrenergic receptor (P08588 whole entry): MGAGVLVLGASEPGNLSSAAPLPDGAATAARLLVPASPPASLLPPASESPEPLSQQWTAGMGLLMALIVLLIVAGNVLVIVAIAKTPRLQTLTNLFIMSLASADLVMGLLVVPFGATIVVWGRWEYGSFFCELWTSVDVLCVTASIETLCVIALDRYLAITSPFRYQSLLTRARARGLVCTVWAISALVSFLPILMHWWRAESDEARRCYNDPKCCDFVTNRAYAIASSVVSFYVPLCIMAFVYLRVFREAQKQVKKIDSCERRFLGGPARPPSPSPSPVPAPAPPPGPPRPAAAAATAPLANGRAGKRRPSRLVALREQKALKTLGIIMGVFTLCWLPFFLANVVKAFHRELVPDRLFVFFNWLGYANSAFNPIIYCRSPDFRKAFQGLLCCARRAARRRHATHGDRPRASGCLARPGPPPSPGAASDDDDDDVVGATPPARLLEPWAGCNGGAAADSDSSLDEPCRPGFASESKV
Description: Displacement of [125]I-cyanopindolol from recombinant human beta1 adrenergic receptor after 1 hr by scintillation counting method

Structure (SMILES): O=C(Nc1ccc(C[C@@H]2CC[C@H]([C@H](O)c3ccccc3)N2)cc1)[C@@H]1CCc2nccc(=O)n21 [VIBEGRON]
- clearance [1]: 20 mL/min/kg
- AUC/dose (Cynomolgus monkey [2]): 870 nM·h/mg/kg
- fAUC/dose (Cynomolgus monkey [3]): 500 nM·h/mg/kg
- bioavailability [4]: 46%
- IC50 (Cytochrome P450 2C8): > 100 µM
- IC50 (Cytochrome P450 2C19): > 100 µM
- max activation [5]: 89%
- AC50 [6]: > 70 µM
- logD [7]: 0.9
- IC50 [8]: > 30 µM
- IC50 (Cytochrome P450 2D6): > 100 µM
- max activation [9]: 84%
- clearance [10]: 16 mL/min/kg
- CL free (Rattus norvegicus [11]): 67 mL/min/kg
- CL free (Rhesus monkey): 33 mL/min/kg
- half-life [12]: 13 h
- half-life [13]: 14 h
- fAUC/dose (Rattus norvegicus [14]): 113 nM·h/mg/kg
- bioavailability [15]: 44%
- bioavailability [16]: 23%
- fraction unbound [17]: 0.21
- fraction unbound [18]: 0.41
- fraction unbound [19]: 0.49
- CLint scaled [20]: 13 mL/min/kg
- CLint scaled [21]: < 10 mL/min/kg
- remaining at 24 h [22]: 100%
- remaining at 24 h [23]: 100%
- remaining at 24 h [24]: 93%
- max activation [25]: 83%
- max activation [26]: 87%
- Activity (Rattus norvegicus [27]): Dose-dependent effect
- Activity (Rattus norvegicus [28]): Dose-dependent effect
- dose excreted at 48 h [29]: 32%
- dose excreted at 48 h [30]: 19%
- Activity (Hepatocyte): Not Active
- EC50 [31]: > 30 µM
- solubility [32]: > 4000 µg/mL
- solubility [33]: > 4000 µg/mL
- Activity (Rattus norvegicus [34]): Non-toxic
- IC50 [35]: > 20 µM
